Earlier results, collected in US7375230B2, “Fermentation and purification of migrastatin and analog” (Kosan Biosciences, Inc., priority 2000, dated 2008).

Legend:
mouse melanoma B16 cells = conditions: compared with clarithromycin and erythromycin
[1] = test system: human esophageal cancer EC17 cells; conditions: compared with clarithromycin and erythromycin

## CO[C@H]1/C=C/CC/C=C/C(=O)O[C@H]([C@H](C)C(=O)CCCC2CC(=O)NC(=O)C2)/C(C)=C\[C@@H](C)[C@@H]1O [Migrastatin, migrastatin]
Mouse melanoma B16 cells
  effectiveness against the migration of cells: more effective than clarithromycin and erythromycin
[1]
  effectiveness against the migration of cells: more effective than clarithromycin and erythromycin
